Measurements: patent US20260325541A1, “BENZGALANTAMINE FOR TREATING PERSISTENT POST-CONCUSSION SYMPTOMS” (Alpha Cognition Inc., priority 2023, published 2026)
Counter-ions that a name gives are not always drawn.

Tests used:
[1] = test system: A. brasiliensis ATCC 16404; assay: USP 51 antimicrobial effectiveness test, A. brasiliensis; format: cell-based, Aspergillus brasiliensis; settings: for CFU/mL: initial 2.2 × 10^5 CFU/mL, 22.5±2.5 °C; for Log Reduction: initial log10 5.3
Protocol: (§1) As shown in WO2022236396A1, in order to assess the anti-microbial properties of ALPHA-1062, the USP (US Pharmacopeia) Chapter 51 Preservative Challenge Test (USP 51) was employed. The USP 51 is a common method used to gauge preservative effectiveness. Much like a Preservative Challenge Screen, it is used to evaluate the effect of preservatives in cosmetics, personal care products, and drug products. Preservatives are typically antimicrobial ingredients that are added to aqueous product formulations to help maintain the safety of the product by inhibiting the growth and reducing the number of microbial contaminants.
(§2) In the context of the present invention, ALPHA-1062 (in the form of the gluconate salt) was assessed in place of (as) a preservative. No additional preservative was added to the ALPHA-1062 gluconate preparation, rather an anti-microbial effect of the agent itself (ALPHA-1062) was assessed. ALPHA-1062 is therefore the anti-microbial agent in the assay and experiments described below.
(§3) The USP 51 challenge test utilizes 5 microorganisms (3 bacteria and 2 fungi) for challenge testing. Each of the microorganisms are known strains of pathogenic microorganisms and they represent a wide range of microbial physiologies.
(§4) Cultures of the following microorganisms were applied, as per standard guidelines for USP 51: Candida albicans (ATCC No. 10231), Aspergillus brasiliensis (ATCC No. 16404), Escherichia coli (ATCC No. 8739), Pseudomonas aeruginosa (ATCC No. 9027), and Staphylococcus aureus (ATCC No. 6538). […]
(§5) The initial concentration of viable microorganisms in each test preparation was estimated based on the concentration of microorganisms in each of the standardized inoculums, as determined by the plate-count method.
(§6) The inoculated containers were incubated at 22.5±2.5 °C and each container was sampled at the appropriate intervals, as specified in Table 3. Any changes observed in the appearance of the culture was recorded at these intervals. By using the plate-count procedure, the number of CFU present in each test preparation was determined for the applicable intervals.
(§7) An inactivator (neutralizer) of the specific antimicrobial was incorporated in the plate count or in the appropriate dilution prepared for plating. These conditions were determined in the validation study for that sample based upon the conditions of media and microbial recovery incubation times listed in Table 2. Using the calculated concentrations of CFU per mL present at the start of the test, the change in log 10 values of the concentration of CFU per mL for each microorganism was calculated at the applicable test intervals, and the changes were expressed in terms of log reductions.

[2] = test system: all 5 organisms tested in the USP 51; assay: USP 51 overall assessment against Category 2 criteria; format: cell-based; settings: USP 51, Category 2 criteria, 14 and 28 days
Protocol: as §1
In the context of the present invention, ALPHA-1062 (in the form of the gluconate salt) was assessed in place of (as) a preservative. No additional preservative was added to the ALPHA-1062 gluconate preparation, rather an anti-microbial effect of the agent itself (ALPHA-1062) was assessed. […]
as §5
The inoculated containers were incubated at 22.5±2.5 °C and each container was sampled at the appropriate intervals, as specified in Table 3. Any changes observed in the appearance of the culture was recorded at these intervals. […]

P. aeruginosa ATCC 9027 = assay: USP 51 antimicrobial effectiveness test, P. aeruginosa; format: cell-based, Pseudomonas aeruginosa; settings: for CFU/mL: initial 2.9 × 10^5 CFU/mL, 22.5±2.5 °C; for Log Reduction: initial log10 5.5
Protocol: as §1, §2, §3, §4, §5, §6, §7

E. coli ATCC 8739 = assay: USP 51 antimicrobial effectiveness test, E. coli; format: cell-based, Escherichia coli; settings: for CFU/mL: initial 9.1 × 10^5 CFU/mL, 22.5±2.5 °C; for Log Reduction: initial log10 6.0
Protocol: as §1, §2, §3, §4, §5, §6, §7

C. albicans ATCC 10231 = assay: USP 51 antimicrobial effectiveness test, C. albicans; format: cell-based, Candida albicans; settings: for CFU/mL: initial 6.7 × 10^5 CFU/mL, 22.5±2.5 °C; for Log Reduction: initial log10 5.8
Protocol: as §1, §2, §3, §4, §5, §6, §7

S. aureus ATCC 6538 = assay: USP 51 antimicrobial effectiveness test, S. aureus; format: cell-based, Staphylococcus aureus; settings: for CFU/mL: initial 4.0 × 10^5 CFU/mL, 22.5±2.5 °C; for Log Reduction: initial log10 5.6
Protocol: as §1, §2, §3, §4, §5, §6, §7

[3] = Body weight / overt toxicity over the 35-day study; format: in vivo, male Wistar rats
Excerpt: Young adult (2-3 months) male Wistar rats were subjected to a moderate TBI induced by controlled cortical impact (CCI). Animal models of TBI including the CCI model and functional tests have been described in detail in peer reviewed publications (Xiong et al., 2013, Nat Rev Neurosci.; Zhang et al., 2016, J Neurosurg.; Zhang et al., 2016, Neurochem Int.; Zhang et al., 2021, J Neurotrauma). Injury consisted of a single impact at 4.0 m/see, 2.5 mm deformation to the left parietal cortex. In addition, a group of animals was left healthy/not injured to serve as a healthy control.
The animals were divided into 3 groups: • 1) TBI+Vehicle (purified water, n=10) • 2) TBI+ALPHA-1062 (4.5 mg/kg) (n=10) • 3) Healthy/not injured and not treated (Sham surgery) (n=10)
The substance used in this study was ALPHA-1062 at 4.5 mg/kg. As control treatment (vehicle) purified water was administered intranasally (IN). The ALPHA-1062 and the control treatment were initiated 2 hours after injury and continued twice daily (with a 6-hour interval) for 35 consecutive days.
Data were evaluated for normality applying the following statistical analyses: Data transformation was considered if the data was abnormal. The data was analyzed with GraphPad Prism Software 9.0. All data herein is presented as the mean±standard deviation (SD) and were analyzed with one-way analysis of variance (ANOVA) or two-way ANOVA (treatment x time) followed by post hoc Tukey's multiple comparison test (more than two groups). Differences between means are considered statistically significant when p is <0.05.

[4] = test system: mice after repeated blast mild traumatic brain injury (blast mTBI); assay: Thermal Gradient Ring (TGR) assessment of heat/pain sensitivity after repetitive blast mTBI; format: in vivo, C57Bl/6 mice; settings: after one month of treatment, 3.0 mg/kg
[5] = intra-nasal administration, similar doses; cited from earlier work
[6] = 43% RH (RT); from WO 2022/150917; cited from earlier work
[7] = Solid-state stability of Form A; format: physicochemical
Protocol: As described therein, polymorphic studies were conducted with benzgalantamine utilizing a variety of solvents and crystallization conditions (Table 5 of WO 2022/150917) and subsequent XRPD analyses. Seven unique crystalline materials were observed and isolated, and were designated as Forms A, B, C, D and Materials E, F and G (FIG. 6 of WO 2022/150917). Amorphous material was also observed. Form A of benzgalantamine is an anhydrous crystalline material with concomitant melt/decomposition onset near 117 °C. […] Based upon WO 2022/150917, anhydrous Form A, stored under appropriate temperature and humidity conditions to maintain its Form and stability, appears best suited of the various benzgalantamine forms to be used in formulation and manufacture of drug products.
As used herein, the term stable may relate to either chemical stability or to polymorph stability. Polymorph stability refers to the likelihood of a polymorph form remaining in its specific crystalline state under suitable storage conditions. For example, a stable polymorph form will maintain at least about 95% by weight, preferably at least about 98% by weight, and more preferably at least about 99% by weight or more of the crystalline form, in other words the form remains unchanged after storage under the indicated conditions for the indicated time.

[8] = test system: patients with chronic TBI; settings: oral, cited from earlier work; for adverse effects: chronic TBI patients; for TBI-related symptoms: patient reported, not placebo controlled

For COc1ccc2c3c1O[C@H]1C[C@@H](OC(=O)c4ccccc4)C=C[C@@]31CCN(C)C2 [ALPHA-1062 Gluconate, (4aS,6R,8aS)-4a,5,6,9,10,11,12-hexahydro-3-methoxy-11-methyl-6H-benzofuro[3a,3,2-ef][2]benzazepin-6-benzoate-gluconate salt], the CFU/mL ([1]; Day 14) was 1.6 × 10^2 CFU/mL, the “Log Reduction” value ([1]; Day 14) was 3.1 Log and the CFU/mL ([1]; Day 28) was 1.5 × 10^2 CFU/mL. For the same compound, the “Log Reduction” value ([1]; Day 28) was 3.1 Log, the anti-microbial effect [2] was “strong anti-microbial effect against all 5 organisms tested in the USP 51” and the CFU/mL (P. aeruginosa ATCC 9027; Day 14) was less than 10 CFU/mL. For the same compound, the “Log Reduction” value (P. aeruginosa ATCC 9027; Day 14) was 4.5 Log, the CFU/mL (P. aeruginosa ATCC 9027; Day 28) was less than 10 CFU/mL and the “Log Reduction” value (P. aeruginosa ATCC 9027; Day 28) was 4.5 Log. The CFU/mL (E. coli ATCC 8739; Day 14) was less than 10 CFU/mL, the “Log Reduction” value (E. coli ATCC 8739; Day 14) was 5.0 Log and the CFU/mL (E. coli ATCC 8739; Day 28) was less than 10 CFU/mL. For the same compound, the “Log Reduction” value (E. coli ATCC 8739; Day 28) was 5.0 Log, the CFU/mL (C. albicans ATCC 10231; Day 14) was less than 10 CFU/mL and the “Log Reduction” value (C. albicans ATCC 10231; Day 14) was 4.8 Log. The CFU/mL (C. albicans ATCC 10231; Day 28) was less than 10 CFU/mL, the “Log Reduction” value (C. albicans ATCC 10231; Day 28) was 4.8 Log and the CFU/mL (S. aureus ATCC 6538; Day 14) was less than 10 CFU/mL. The “Log Reduction” value (S. aureus ATCC 6538; Day 14) was 4.6 Log, the CFU/mL (S. aureus ATCC 6538; Day 28) was less than 10 CFU/mL and the “Log Reduction” value (S. aureus ATCC 6538; Day 28) was 4.6 Log.

With COc1ccc2c3c1O[C@H]1C[C@@H](OC(=O)c4ccccc4)C=C[C@@]31CCN(C)C2 [ALPHA-1062, (4aS,6R,8aS)-5,6,9,10,11,12-hexahydro-3-methoxy-11-methyl-4aH-[1]benzofuro[3a,3,2-ef][2]benzazepin-6-ol benzoate] the “overt toxicity vs vehicle animals” value ([3]; 35 days, 4.5 mg/kg IN twice daily) was “did not show overt toxicity”, the “body weight change vs day zero” value ([3]; days 1-7 (D1-7)) was “significant body weight loss (p<0.05)” and the “body weight change vs day zero” value ([3]; days 29-35 (D29-35)) was “significant body weight gain”. The “body weight vs vehicle treated or untreated animals” value ([3]; each time point D0-D35, 4.5 mg/kg IN twice daily, FIG. 10) was “no significant alterations in body weight compared to vehicle treated or untreated animals”, the “persistence of structural/functional benefit following removal of drug treatment” value [4] was “at least 2 months” and the “bioavailability in the brain vs oral galantamine” value [5] was “higher bioavailability in the brain, than similar doses of oral galantamine”.

For COc1ccc2c3c1O[C@H]1C[C@@H](OC(=O)c4ccccc4)C=C[C@@]31CCN(C)C2.O=C(O)C(O)C(O)C(O)C(O)CO [Form A], the “duration for which Form A was sustained” value [6] is listed as “up to 5 days”, the “kinetic stability in the solid state” value [6] is listed as “kinetically stable in the solid state” and the chemical stability ([7]; appropriate storage conditions) is listed as “good chemical stability”. For the same compound, the “polymorph stability on storage” value ([7]; room temperature, at or under about 43% RH or less than 0.12 aw, multiple months) was “good stability”.

In the case of COc1cc2c(cc1OC)C(=O)C(CC1CCN(Cc3ccccc3)CC1)C2 (centres unmarked) [donepezil], the adverse effects [8] is given as “about half of all patients experienced disturbing adverse effects” and the TBI-related symptoms [8] is given as “subjective improvement of TBI-related symptoms”.

For CCN(C)C(=O)Oc1cccc([C@H](C)N(C)C)c1 [rivastigmine], the adverse effects [8] is listed as “about half of all patients experienced disturbing adverse effects” and the TBI-related symptoms [8] is listed as “subjective improvement of TBI-related symptoms”.
